The target of the assay is T1, CDK9/CyclinT1 (Homo sapiens, UniProt P50750).
T1 construct: purchased ProQinase/Reaction Biology, USA #0371-0345-1
T1 sequence (P50750 whole entry): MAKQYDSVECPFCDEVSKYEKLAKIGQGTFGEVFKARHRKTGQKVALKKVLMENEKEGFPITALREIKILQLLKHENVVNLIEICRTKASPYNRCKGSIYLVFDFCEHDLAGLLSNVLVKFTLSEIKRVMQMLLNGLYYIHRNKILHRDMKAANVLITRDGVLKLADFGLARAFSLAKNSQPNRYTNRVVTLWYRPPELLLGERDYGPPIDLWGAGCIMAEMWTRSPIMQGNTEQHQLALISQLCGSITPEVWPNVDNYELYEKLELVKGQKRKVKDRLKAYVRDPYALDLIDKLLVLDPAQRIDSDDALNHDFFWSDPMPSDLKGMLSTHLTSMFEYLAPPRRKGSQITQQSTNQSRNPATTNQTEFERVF
T1 sequence (O60563 whole entry partner): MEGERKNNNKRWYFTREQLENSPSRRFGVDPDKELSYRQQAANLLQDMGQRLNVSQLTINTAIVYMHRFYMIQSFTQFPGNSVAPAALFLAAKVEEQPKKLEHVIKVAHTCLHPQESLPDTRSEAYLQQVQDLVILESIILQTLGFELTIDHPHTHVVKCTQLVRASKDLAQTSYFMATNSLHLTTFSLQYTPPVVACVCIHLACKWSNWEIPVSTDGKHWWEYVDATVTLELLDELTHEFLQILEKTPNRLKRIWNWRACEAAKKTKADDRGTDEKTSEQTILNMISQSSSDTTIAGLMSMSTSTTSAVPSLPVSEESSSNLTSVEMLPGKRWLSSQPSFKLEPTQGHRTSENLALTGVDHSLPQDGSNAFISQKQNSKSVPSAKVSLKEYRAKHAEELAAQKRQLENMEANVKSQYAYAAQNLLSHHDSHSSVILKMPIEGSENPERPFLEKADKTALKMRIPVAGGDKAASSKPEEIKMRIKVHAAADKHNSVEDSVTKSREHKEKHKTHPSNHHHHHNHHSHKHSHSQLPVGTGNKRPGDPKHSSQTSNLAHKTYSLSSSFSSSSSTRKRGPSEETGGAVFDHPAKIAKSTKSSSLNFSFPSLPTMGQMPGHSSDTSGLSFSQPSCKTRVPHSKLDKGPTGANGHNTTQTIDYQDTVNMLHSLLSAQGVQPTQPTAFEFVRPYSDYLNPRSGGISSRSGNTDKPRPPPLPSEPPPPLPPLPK
Nature of the assay: CDK9/T1 ADPGlo kinase assay. The assay is classed as biochemical. The conditions noted are these: CDK9/CyclinT1 6 nM, ATP 10 microM, PDKtide 40 microM, 120 min RT. As for the experimental part: The testing compound was evaluated in 12 concentrations in a 1:3 dilution series, starting from 5microM as the highest concentration.
In a white 384 microplate (Greiner bio-one, Austria #784904,) with 2 microL of 3-fold concentrated CDK9/CyclinT1 (ProQinase/Reaction Biology, USA #0371-0345-1, LOT.: 012), final concentration (f.c.) 6 nM, in 1×kinase buffer, 2 microL of compound (3× fold concentrated in f.c. 1.66% DMSO/H2O) was added and incubated at Room Temperature (RT) for 10 min. Then 2 microL of Substrate/ATP-Mix (3×PDKtide f.c. 40 microM, SignalChem Biotech, Canada via Biozol, Eching, Germany #P10-58, LOT.: L2230-7 and 3×UltraPure ATP f.c. 10 microM (ADP Glo Kinase assay, Promega GmbH, Germany #V9102)) were added, mixed and incubated for 120 min at RT.
After incubation time, 5 microL of ADP Glo reagent (ready to use, ADP Glo Kinase assay, Promega GmbH, Germany #V9102) were added, mixed and incubated for 40 min at RT.
In the last step, 10 microL of ADP Glo Detection reagent (ready to use, ADP Glo Kinase assay, Promega GmbH, Germany #V9102) were added, mixed and incubated for 30 min at RT.
GloMax Discover GM3000 Reader (Promega GmbH, Germany 9700000249) was used for the readout.
The inhibitor concentration was plotted against the luminescence to determine the IC50 using XLFit 5.5 (IDBS, Guildford) to fit to a sigmoidal dose response curve with a variable slope.
`Fc1cccc(F)c1-c1nc(Nc2cnn([C@H]3CC[C@H](N4CCOCC4)CC3)c2)n2nccc2n1` [Example #68, 2-(2,6-difluorophenyl)-N-(1-((1r,4r)-4-morpholinocyclohexyl)-1H-pyrazol-4-yl)pyrazolo[1,5-a][1,3,5]triazin-4-amine]: the IC50 is less than 200 nM.

Consider `Fc1cccc(F)c1-c1nc(NC2CCC(N3CCOCC3)CC2)n2nccc2n1` (stereo not shown) [Example #70, 2-(2,6-difluorophenyl)-N-((1r,4r)-4-morpholinocyclohexyl)pyrazolo[1,5-a][1,3,5]triazin-4-amine], for which the IC50 was less than 20 nM. Next, `Fc1cccc(Cl)c1-c1nc(Nc2cnn(C3CCN(C4CCOCC4)CC3)c2)n2nccc2n1` [Example #71, 2-(2-chloro-6-fluorophenyl)-N-(1-(1-(tetrahydro-2H-pyran-4-yl)piperidin-4-yl)-1H-pyrazol-4-yl)pyrazolo[1,5-a][1,3,5]triazin-4-amine]: less than 200 nM; `Fc1cccc(F)c1-c1nc(Nc2cnn(C3CCN(C4CCOCC4)CC3)c2Cl)n2nccc2n1` [Example #73, N-(5-chloro-1-(1-(tetrahydro-2H-pyran-4-yl)piperidin-4-yl)-1H-pyrazol-4-yl)-2-(2,6-difluorophenyl)pyrazolo[1,5-a][1,3,5]triazin-4-amine]: less than 1000 nM.

In turn, `Fc1cccc(F)c1-c1nc(Nc2cnn(C3CCNCC3)c2)n2nccc2n1` [Example #74, 2-(2,6-difluorophenyl)-N-(1-(piperidin-4-yl)-1H-pyrazol-4-yl)pyrazolo[1,5-a][1,3,5]triazin-4-amine] yielded an IC50 of less than 200 nM. Take `Fc1cccc(Cl)c1-c1nc(N[C@H]2CC[C@H](N3CCOCC3)CC2)n2nccc2n1` [Example #76, 2-(2-chloro-6-fluorophenyl)-N-((1r,4r)-4-morpholinocyclohexyl)pyrazolo[1,5-a][1,3,5]triazin-4-amine]: the IC50 is less than 200 nM. Next, `Cc1cnn2c(Nc3cnn(C4CCN(C5CCOCC5)CC4)c3)nc(-c3c(F)cccc3F)nc12` [Example #77, 2-(2,6-difluorophenyl)-8-methyl-N-(1-(1-(tetrahydro-2H-pyran-4-yl)piperidin-4-yl)-1H-pyrazol-4-yl)pyrazolo[1,5-a][1,3,5]triazin-4-amine]: less than 200 nM; `Fc1cccc(F)c1-c1nc(Nc2cnn(C3CCN(CC4CC4)CC3)c2)n2nccc2n1` [Example #80, N-(1-(1-(cyclopropylmethyl)piperidin-4-yl)-1H-pyrazol-4-yl)-2-(2,6-difluorophenyl)pyrazolo[1,5-a][1,3,5]triazin-4-amine]: less than 200 nM; `FCCN1CCC(n2cc(Nc3nc(-c4c(F)cccc4F)nc4ccnn34)cn2)CC1` [Example #81, 2-(2,6-difluorophenyl)-N-(1-(1-(2-fluoroethyl)piperidin-4-yl)-1H-pyrazol-4-yl)pyrazolo[1,5-a][1,3,5]triazin-4-amine]: less than 200 nM. Regarding `COC(=O)N1CCC(n2cc(Nc3nc(-c4c(F)cccc4F)nc4ccnn34)cn2)CC1` [Example #82, methyl-4-(4-((2-(2,6-difluorophenyl)pyrazolo[1,5-a][1,3,5]triazin-4-yl)amino)-1H-pyrazol-1-yl)piperidine-1-carboxylate], the IC50 is less than 1000 nM. Consider `Fc1cccc(F)c1-c1nc(Nc2cnn(C3CCN(C4CC4)CC3)c2)n2nccc2n1` [Example #83, N-(1-(1-cyclopropylpiperidin-4-yl)-1H-pyrazol-4-yl)-2-(2,6-difluorophenyl)pyrazolo[1,5-a][1,3,5]triazin-4-amine], for which the IC50 was less than 200 nM.

The compound `Fc1cccc(F)c1-c1nc(Nc2cnn(C3CCN(C4COC4)CC3)c2)n2nccc2n1` [Example #84, 2-(2,6-difluorophenyl)-N-(1-(1-(oxetan-3-yl)piperidin-4-yl)-1H-pyrazol-4-yl)pyrazolo[1,5-a][1,3,5]triazin-4-amine] displayed an IC50 of less than 1000 nM. For the compound `C=CCCN1CCC(n2cc(Nc3nc(-c4c(F)cccc4F)nc4ccnn34)cn2)CC1` [Example #87, N-(1-(1-(but-3-en-1-yl)piperidin-4-yl)-1H-pyrazol-4-yl)-2-(2,6-difluorophenyl)pyrazolo[1,5-a][1,3,5]triazin-4-amine], the IC50 was less than 200 nM. `N#Cc1cnn2c(Nc3cnn(C4CCN(C5CCOCC5)CC4)c3)nc(-c3c(F)cccc3F)nc12` [Example #88, 2-(2,6-difluorophenyl)-4-((1-(1-(tetrahydro-2H-pyran-4-yl)piperidin-4-yl)-1H-pyrazol-4-yl)amino)pyrazolo[1,5-a][1,3,5]triazine-8-carbonitrile]: the IC50 is less than 200 nM. Next, `Fc1cccc(F)c1-c1nc(Nc2cnn(C3CCN(C4CCOCC4)CC3)c2)n2ncc(Cl)c2n1` [Example #92, 8-chloro-2-(2,6-difluorophenyl)-N-(1-(1-(tetrahydro-2H-pyran-4-yl)piperidin-4-yl)-1H-pyrazol-4-yl)pyrazolo[1,5-a][1,3,5]triazin-4-amine]: less than 20 nM; `N#Cc1cnn2c(N[C@H]3CC[C@H](N4CCOCC4)CC3)nc(-c3c(F)cccc3F)nc12` [Example #93, 2-(2,6-difluorophenyl)-4-(((1r,4r)-4-morpholinocyclohexyl)amino)pyrazolo[1,5-a][1,3,5]triazine-8-carbonitrile]: less than 200 nM. The value for `Fc1cccc(F)c1-c1nc(Nc2cnn(C3CCN(C4CCOCC4)CC3)c2)n2ncc(Br)c2n1` [Example #94, 8-bromo-2-(2,6-difluorophenyl)-N-(1-(1-(tetrahydro-2H-pyran-4-yl)piperidin-4-yl)-1H-pyrazol-4-yl)pyrazolo[1,5-a][1,3,5]triazin-4-amine] was less than 200 nM. `Fc1cccc(F)c1-c1nc(N[C@H]2CC[C@H](N3CCOCC3)CC2)n2ncc(Br)c2n1` [Example #95, 8-bromo-2-(2,6-difluorophenyl)-N-((1r,4r)-4-morpholinocyclohexyl)pyrazolo[1,5-a][1,3,5]triazin-4-amine] gave a 50% inhibitory concentration (IC50) of less than 20 nM. On to `CN1CCC(N2CCC(n3cc(Nc4nc(-c5c(F)cccc5F)nc5c(Cl)cnn45)cn3)CC2)CC1` [Example #96, 8-chloro-2-(2,6-difluorophenyl)-N-(1-(1′-methyl-[1,4′-bipiperidin]-4-yl)-1H-pyrazol-4-yl)pyrazolo[1,5-a][1,3,5]triazin-4-amine], for which the 50% inhibitory concentration (IC50) was less than 200 nM. As to `CC(C)(C)N1CCN(c2ccc(Nc3nc(-c4c(F)cccc4F)nc4c(Cl)cnn34)cc2)CC1` [Example #97, N-(4-(4-(tert-butyl)piperazin-1-yl)phenyl)-8-chloro-2-(2,6-difluorophenyl)pyrazolo[1,5-a][1,3,5]triazin-4-amine], the IC50 was less than 200 nM. The value for `O=C(c1ccc(Nc2nc(-c3c(F)cccc3F)nc3c(Cl)cnn23)cc1)N1CCOCC1` [Example #98, (4-((8-chloro-2-(2,6-difluorophenyl)pyrazolo[1,5-a][1,3,5]triazin-4-yl)amino)phenyl)(morpholino)methanone] was less than 1000 nM; that for `Fc1cccc(F)c1-c1nc(Nc2cnn(C3CCN(C4CC4)CC3)c2)n2ncc(Cl)c2n1` [Example #99, 8-chloro-N-(1-(1-cyclopropylpiperidin-4-yl)-1H-pyrazol-4-yl)-2-(2,6-difluorophenyl)pyrazolo[1,5-a][1,3,5]triazin-4-amine] was less than 200 nM.

(Values after patent publication US20250019382A1, “NOVEL INHIBITORS OF CYCLIN-DEPENDENT KINASES” (Origenis Gmbh, priority 2021, published 2025).)
